According to US20110287108A1 (priority 2008, published 2011):
Structures can show the parent of a compound that is named as a salt. Where two headings read alike, the source gives them in different places.

Test system: Phytophthora infestans
Assay type: in vivo
Conditions: tomato plants
[1] = protective, 3 days after inoculation, 0.25 ppm a.i.
[2] = protective, 3 days after inoculation, 0.5 ppm a.i.
[3] = protective, 3 days after inoculation, 12.5 ppm a.i.

CCCCCNc1cccc(CON=C(c2ccccc2)c2nnnn2C)n1 [6-[({[(1-methyl-1H-tetrazol-5-yl)(phenyl)methylene]amino}oxy)methyl]-N-pentylpyridin-2-amine]
Efficacy in % found (protective spray, evaluated 3 days after inoculation, application rate cell empty): 69%

CCCCCCNc1cccc(CON=C(c2ccccc2)c2nnnn2C)n1 [N-hexyl-6-[({[(1-methyl-1H-tetrazol-5-yl)(phenyl)methylene]amino}oxy)-methyl]pyridin-2-amine]
Efficacy in % found [1]: 48% | Efficacy in % found [2]: 63%

CC(C)[C@H](NC(=O)O)C(=O)N[C@H](C)c1nc2ccc(F)cc2s1 [benthiavalicarb]
Efficacy in % found [1]: 16%

N#Cc1c(Cl)c(Cl)c(Cl)c(C#N)c1Cl [chlorothalonil]
Efficacy in % found [3]: 19%

[Cl-].[Cu+2].[Cu+2].[OH-].[OH-].[OH-] [copper oxychloride]
Efficacy in % found [3]: 58%

COc1ccc(C(=CC(=O)N2CCOCC2)c2ccc(Cl)cc2)cc1OC [dimethomorph]
Efficacy in % found [2]: 35%

O=C(NCc1ncc(C(F)(F)F)cc1Cl)c1c(Cl)cccc1Cl [fluopicolide]
Efficacy in % found [1]: 4%

OP(O)O [phosporous acid]
Efficacy in % found [3]: 33%

CCCOC(=O)NCCCN(C)C [propamocarb-HCl]
Efficacy in % found (protective, 3 days after inoculation, 25 ppm a.i.): 24%

CCC(C)(NC(=O)c1cc(Cl)c(C)c(Cl)c1)C(=O)CCl (stereo not drawn) [zoxamide]
Efficacy in % found [1]: 18%

fosetyl-aluminium
Efficacy in % found [3]: 42%
